Source: the supplement of paper PMC10307832

Columns and labels:
Test in all cases: relative viability (nuclei count vs DMSO), 5 days (fraction); higher = more cells survive
[1] = compound: C1CC(C1)(C(=O)O)C(=O)O.[NH2-].[NH2-].[Pt+2] [Carboplatin]
How it was run: (§1)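 After an overnight hold at 37 °C, lung cancer cell lines in 1536-well plates were pinned with five library-drug doses (not always all listed), each √10 from the next, on vehicle-anchored plates. The cells stayed 5 days without fresh medium, then a one-step fix, permeabilisation and Hoechst stain preceded 4× imaging and MetaXpress nuclear counts. A plate passed only with control CV under 25% and at least one doubling. Viability is the median, over plates, of treated-well nuclei relative to vehicle-well nuclei.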

[2] = compound: CC[C@H](C)N1C=C(C2=C(C=C(C=C21)C3=CN=C(C=C3)N4CCNCC4)C(=O)NCC5=C(C=C(NC5=O)C)C)C [GSK126]
How it was run: as §1

[3] = compound: NS(=O)(=O)OC[C@@H]1C[C@@H](n2ccc3c(N[C@H]4CCc5ccccc54)ncnc32)C[C@@H]1O [MLN4924]
How it was run: as §1

[4] = compound: C1CC(C1)(C(=O)O)C(=O)O.[NH2-].[NH2-].[Pt+2] [Carboplatin] + CC(=O)Nc1cccc(-n2c(=O)n(C3CC3)c(=O)c3c(Nc4ccc(I)cc4F)n(C)c(=O)c(C)c32)c1 [Trametinib] (partner 0.02 µM)
How it was run: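 After 5 days of treatment, lung cancer cells in 1536-well plates were fixed and stained in a single step (final 0.05% Triton X-100, 1% formaldehyde, 1 ug/ml Hoechst) and their nuclei counted on 4× images. Treatment had been applied by pin tool the day after seeding as one drug alone or as a fixed anchor-drug dose with five library-drug doses (not always all listed) in √10 steps. Relative viability is the nuclei count of treated wells divided by that of vehicle wells, and values are medians of duplicate plates.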

UMC-11 gave a relative viability ([1]; 0.08 µM) of 0.982, a relative viability ([1]; 0.253 µM) of 0.996 and a relative viability ([1]; 0.8 µM) of 1.01. It also gave a relative viability ([1]; 2.53 µM) of 0.923, a relative viability ([1]; 8 µM) of 0.767 and a relative viability ([2]; 0.08 µM) of 1.09. For the same cell line, the relative viability ([2]; 0.253 µM) was 0.982, the relative viability ([2]; 0.8 µM) was 1.02 and the relative viability ([2]; 2.53 µM) was 1.01. The relative viability ([2]; 8 µM) was 1.11, the relative viability ([3]; 0.04 µM) was 0.678 and the relative viability ([3]; 0.1265 µM) was 0.463. For the same cell line, the relative viability ([3]; 0.4 µM) was 0.383, the relative viability ([3]; 1.265 µM) was 0.189 and the relative viability ([3]; 4 µM) was 0.19. For the same cell line, the relative viability ([4]; first compound 0.08 µM) was 0.632, the relative viability ([4]; first compound 0.253 µM) was 0.706 and the relative viability ([4]; first compound 0.8 µM) was 0.738. The relative viability ([4]; first compound 2.53 µM) was 0.929 and the relative viability ([4]; first compound 8 µM) was 0.532.
